Results taken from patent publication US12643894B2, “BCL-2 family proteins modulating compounds for cancer treatment” (CENTRE REGIONAL DE LUTTE CONTRE LE CANCER FRANCOIS BACLESSE, priority 2020, dated 2026).

What was measured:
[1] = target: T1, Bcl-xL (Homo sapiens, UniProt Q07817); assay: Target expression analysis by western blot (Bcl-xL) in IGROV1-R10 cells; assay type: cell-based; details: 24 h exposure, 1 μM
T1 construct: endogenous in cells; host or cells: IGROV1-R10 (human platinum-resistant ovarian carcinoma)
Procedure: (§1) Human platinum resistant ovarian carcinoma cells IGROV1-R10 were used. This cell line was grown in RPMI 1640 medium supplemented with 2 mM Glutamax™, 25 mM HEPES, 10% fetal calf serum, and 33 mM sodium bicarbonate (Fisher Scientific, Illkirch, France). Cells were maintained at 37° C. in a humid atmosphere with 5% C02. Cells were seeded in 25 cm^2 flasks. After 24 h, exponentially growing cells were exposed to 1 μM of compounds for 24 h. CRBN-PBM1-001 targeting both Mcl-1 and CRBN and Pyridoclax were designed and synthetized by the CERMN (Centre d'Etudes et de Recherche sur le Médicament de Normandie) and dissolved in DiMethyl SulfOxide (DMSO, Sigma-Aldrich).
(§2) Cells were rinsed with ice-cold PBS, suspended in a lysis buffer [RIPA: NaCl 150 mM, Tris (pH 8) 50 mM, Triton X100 1%, PMSF 4 mM, EDTA 5 mM, NaF 10 mM, NaPPi 10 mM, Na3VO4 1 mM, aprotinin 0.5 μL/mL and 4.6 mL ultra-pure water] and incubated on ice for 30 min. Lysates were collected after centrifugation (13200 g, 10 min, 4° C.) and protein concentrations were determined using the Bradford assay (Bio-Rad, Hercules, USA). Equal amounts of protein (25 μg) were separated by SDS-PAGE on a 4-15% gradient polyacrylamide Mini-PROTEAN®TGX™ precast gel (Bio-Rad). […] The relative intensities of the protein bands were quantified using the ImageJ software, and the values were normalized to the intensities of the respective Actin signals. […]

[2] = target: T2, Mcl-1 (Homo sapiens, UniProt Q07820); assay: Target expression analysis by western blot (Mcl-1) in IGROV1-R10 cells; assay type: cell-based; details: 24 h exposure, 1 μM
T2 construct: endogenous in cells; host or cells: IGROV1-R10 (human platinum-resistant ovarian carcinoma)
Procedure: as §1, §2

T2 sequence (Q07820 whole entry): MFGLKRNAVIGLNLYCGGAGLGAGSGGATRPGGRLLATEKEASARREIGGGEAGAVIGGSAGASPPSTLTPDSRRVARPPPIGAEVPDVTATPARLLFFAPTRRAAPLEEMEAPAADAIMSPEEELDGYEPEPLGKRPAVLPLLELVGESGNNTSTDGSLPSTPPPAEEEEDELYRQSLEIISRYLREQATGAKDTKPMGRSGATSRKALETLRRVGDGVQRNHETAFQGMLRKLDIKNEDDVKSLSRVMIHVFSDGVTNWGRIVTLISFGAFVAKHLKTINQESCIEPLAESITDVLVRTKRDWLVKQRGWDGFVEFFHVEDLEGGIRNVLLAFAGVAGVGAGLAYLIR
T1 sequence (Q07817 whole entry): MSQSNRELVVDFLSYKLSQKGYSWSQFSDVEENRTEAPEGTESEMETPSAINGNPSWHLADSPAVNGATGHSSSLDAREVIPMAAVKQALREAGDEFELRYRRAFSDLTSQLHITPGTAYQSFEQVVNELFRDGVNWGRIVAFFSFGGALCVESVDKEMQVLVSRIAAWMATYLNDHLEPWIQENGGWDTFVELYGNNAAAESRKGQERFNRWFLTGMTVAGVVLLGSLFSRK

SMILES | Bcl-xL expression [1] | decrease of Mcl-1 expression ([2]; densitometry analysis of western blot normalized to Actin) [%] | Mcl-1 expression (modulation) ([2]; single agent, western blot)
Cc1cc(-c2ncc(C#CCOCCOCCNc3cccc4c3C(=O)N(C3CCC(=O)NC3=O)C4=O)cc2/C=C/c2ccccc2)cnc1-c1cccnc1 (stereo not drawn) [CRBN-PBM1-001] | not affected | 52 | 
Cc1cc(-c2ncc(-c3cccnc3)cc2/C=C/c2ccccc2)cnc1-c1cccnc1 [Pyridoclax, reference compound] |  |  | did not modulate
